Data set [1] relates to A2780 (ovarian carcinoma). Description: SRB cytotoxicity assay, A2780. It is filed as cell-based, human. The note with it: for selectivity index 1 (SI 1): CCD18Co/A2780; for IC50: SRB assay, 72 h treatment, mean n = 3, SD 5-10%. The source says:
(§1) All compounds were screened for their cytotoxic activity and tumor cell selectivity using our standard model, previously described, comprising a selection of human tumor cell lines representing different solid tumor entities and non-malignant human fibroblasts (CCD18Co) including the cell line pair A2780/A2780cis, a well-known model of acquired drug resistance.
(§2) Reagents were bought from commercial suppliers and used without further purification. The solvents were dried according to the usual procedures. TLC was performed on silica gel (Macherey-Nagel, detection with UV absorption; Macherey-Nagel, Düren, Germany). […] Numbering in the NMR spectra: 1–20 (diterpene core), 21–24 for O-(CH2)n-N fragment followed by the pyridinium ring, the ethenyl moiety and the indole moiety. […] IR spectra were recorded on a Perkin-Elmer Spectrum Two (UATR Two Unit, Perkin-Elmer GmbH, Rodgau, Germany). […] Both media were supplemented with 10% fetal bovine serum (Biowest, Nuaillé, France) and 1% penicillin-streptomycin (Sigma-Aldrich).
(§3) Cytotoxic activities of compounds were analyzed using the SRB cytotoxicity assay. Cells were seeded in 96-well plates and after 24 h were treated with serial dilutions of compounds for 72 h. All subsequent steps were performed according to the previously described SRB assay protocol. Dose–response curves and calculation of IC50 values, including standard deviations, were carried out using GraphPad Prism8.
In general terms: In SRB staining, fixed cells bind dye roughly in proportion to their protein.

Data set [2] deals with A549 (lung carcinoma). The experiment in a line: SRB cytotoxicity assay, A549. Particulars: for selectivity index 2 (SI 2): CCD18Co/A549; for IC50: SRB assay, 72 h treatment, mean n = 3, SD 5-10%. It is filed as cell-based, human.
Excerpt: as §1, §2, §3

The test system of data set [3] is A2780cis (resistant derivative of A2780). Description: SRB cytotoxicity assay, A2780cis. Particulars: for IC50: SRB assay, 72 h treatment, mean n = 3, SD 5-10%; for resistance index (RI): quotient IC50 values A2780cis/A2780. In kind it is cell-based, human.
Excerpt: as §1, §2, §3

The test system of data set [4] is CCD18Co (non-malignant human fibroblasts). The experiment in a line: SRB cytotoxicity assay, CCD18Co. Particulars: 72 h treatment, mean n = 3, SD 5-10%. It is filed as cell-based.
Excerpt: as §1, §2, §3

Data set [5] relates to HT29 (colorectal carcinoma). Description: SRB cytotoxicity assay, HT29. It is filed as cell-based, human. Particulars: 72 h treatment, mean n = 3, SD 5-10%.
Excerpt: as §1, §2, §3

For data set [6], the system named is MCF7 (breast carcinoma). Description: SRB cytotoxicity assay, MCF7. In kind it is cell-based, human. The note with it: 72 h treatment, mean n = 3, SD 5-10%.
Excerpt: as §1, §2, §3

The IC50 is the point on the concentration scale where inhibition reaches its midpoint. Lower therefore signals inhibition by little substance.

For `C=C1C[C@@]23CC[C@H]4[C@@](C)(CCC[C@@]4(C)C(=O)OCC[n+]4ccccc4/C=C/c4c[nH]c5ccccc45)[C@@H]2CC[C@]1(O)C3.[Br-]` [Compound 12, 2-{2-[(E)-2-(1H-Indol-3-yl)ethenyl]-pyridinium-1-yl}-ethyl (4α)-13-Hydroxykaur-16-en-18-oate Bromide], in data set [1], the “selectivity index 1 (SI 1)” value stood at 2.95. Further, the IC50 in data set [1] is 25700 nM; in data set [2], 54.3 µM; in data set [3] it was 29400 nM; in data set [4], 75.9 µM; in data set [5], 28.5 µM; in data set [6] it was 20200 nM. The “selectivity index 2 (SI 2)” value in data set [2] was 1.40. Also, in data set [3], the “resistance index (RI)” value worked out at 1.14.
In the case of `CC12CCC3C(CCC4C(C)(C(=O)OCC[n+]5ccccc5C=Cc5c[nH]c6ccccc56)CCCC34C)(CC1=O)C2.[Br-]` (stereo not drawn) [Compound 13, 2-{2-[(E)-2-(1H-Indol-3-yl)ethenyl]-pyridinium-1-yl}-ethyl (4α, 8β, 13β) 13-Methyl-16-oxo-17-norkauran-18-oate Bromide], in data set [1], the “selectivity index 1 (SI 1)” value was 10.75. For the same compound, the IC50 in data set [1] worked out at 1920 nM; in data set [2], 10.8 µM; in data set [3], 4070 nM; in data set [4] it was 20.6 µM; in data set [5] it was 6.35 µM; in data set [6], 3830 nM. The “selectivity index 2 (SI 2)” value in data set [2] came to 1.90. For the same compound, the “resistance index (RI)” value in data set [3] is 2.12.
For `C[C@@]12CC[C@@H]3[C@@](CC[C@H]4[C@@]3(C)CCC[C@@]4(C)C(=O)OCCBr)(CC1=O)C2` [Compound 7, 2-Bromoethyl (4α, 8β, 13β) 13-Methyl-16-oxo-17-norkauran-18-oate], in data set [1], the “selectivity index 1 (SI 1)” value was determined as 3.26. In addition, the IC50 in data set [1] was 19100 nM; in data set [2] it was 32.1 µM; in data set [3] it was 28700 nM; in data set [4], 62.3 µM; in data set [5], 16.1 µM; in data set [6] it was 11800 nM. Besides, the “selectivity index 2 (SI 2)” value in data set [2] amounted to 1.94. In addition, the “resistance index (RI)” value in data set [3] turned out to be 1.50.
For `CC12CCC3C(CCC4C(C)(C(=O)OCCCC[n+]5ccccc5C=Cc5c[nH]c6ccccc56)CCCC34C)(CC1=O)C2.[Br-]` (stereo not drawn) [Compound 29, 4-{2-[(E)-2-(1H-Indol-3-yl)ethenyl]pyridinium-1-yl}-butyl (4α, 8β, 13β) 13-Methyl-16-oxo-17-norkauran-18-oate Bromide], the “selectivity index 1 (SI 1)” value in data set [1] worked out at 17.61. Besides, the IC50 worked out at 1060 nM in data set [1]; 9.86 µM in data set [2]; 3220 nM in data set [3]; 18.6 µM in data set [4]; 3.81 µM in data set [5]; 2050 nM in data set [6]. For the same compound, the “selectivity index 2 (SI 2)” value in data set [2] is on record as 1.88. For the same compound, the “resistance index (RI)” value in data set [3] was determined as 3.05.
Consider `C=C1C[C@@]23CC[C@H]4[C@@](C)(CCC[C@@]4(C)C(=O)OCCC[n+]4ccc(/C=C/c5c[nH]c6ccccc56)cc4)[C@@H]2CC[C@]1(O)C3.[Br-]` [Compound 16, 3-{4-[(E)-2-(1H-Indol-3-yl)ethenyl]-pyridinium-1-yl}-propyl (4α)-13-Hydroxykaur-16-en-18-oate Bromide], for which, in data set [1], the “selectivity index 1 (SI 1)” value was determined as 26.27. The IC50 in data set [1] is 320 nM; in data set [2], 3 µM; in data set [3], 450 nM; in data set [4], 8.33 µM; in data set [5], 0.98 µM; in data set [6], 720 nM. The “selectivity index 2 (SI 2)” value in data set [2] worked out at 2.77. Further, the “resistance index (RI)” value in data set [3] worked out at 1.41.
In the case of `C=C1C[C@@]23CC[C@H]4[C@@](C)(CCC[C@@]4(C)C(=O)OCCCC[n+]4cccc(/C=C/c5c[nH]c6ccccc56)c4)[C@@H]2CC[C@]1(O)C3.[Br-]` [Compound 26, 4-{3-[(E)-2-(1H-Indol-3-yl)-ethenyl]-pyridinium-1-yl}butyl (4α)-13-Hydroxykaur-16-en-18-oate Bromide], the “selectivity index 1 (SI 1)” value in data set [1] is 9.14. Also, the IC50 was 1280 nM in data set [1]; 6.94 µM in data set [2]; 1820 nM in data set [3]; 11.7 µM in data set [4]; 2.43 µM in data set [5]; 1980 nM in data set [6]. Moreover, the “selectivity index 2 (SI 2)” value in data set [2] is reported as 1.69. The “resistance index (RI)” value in data set [3] was 1.42.
As to `CC12CCC3C(CCC4C(C)(C(=O)OCC[n+]5ccc(C=Cc6c[nH]c7ccccc67)cc5)CCCC34C)(CC1=O)C2.[Br-]` (stereo not drawn) [Compound 9, 2-{4-[(E)-2-(1H-Indol-3-yl)-ethenyl]pyridinium-1-yl}-ethyl (4α, 8β, 13β) 13-Methyl-16-oxo-17-norkauran-18-oate Bromide], the “selectivity index 1 (SI 1)” value in data set [1] is given as 13.96. Also, the IC50 in data set [1] stood at 930 nM; in data set [2], 9.09 µM; in data set [3], 1540 nM; in data set [4], 13 µM; in data set [5], 1.56 µM; in data set [6], 1080 nM. Moreover, the “selectivity index 2 (SI 2)” value in data set [2] is 1.42. Also, in data set [3], the “resistance index (RI)” value was determined as 1.66.
As for `C=C1C[C@@]23CC[C@H]4[C@@](C)(CCC[C@@]4(C)C(=O)OCCC[n+]4cccc(/C=C/c5c[nH]c6ccccc56)c4)[C@@H]2CC[C@]1(O)C3.[Br-]` [Compound 18], in data set [1], the “selectivity index 1 (SI 1)” value is 11.82. Further, the IC50 in data set [1] turned out to be 2280 nM; in data set [2], 9.47 µM; in data set [3], 2710 nM; in data set [4], 26.9 µM; in data set [5], 6.66 µM; in data set [6], 9470 nM. In data set [2], the “selectivity index 2 (SI 2)” value is listed as 2.84. Moreover, the “resistance index (RI)” value in data set [3] amounted to 1.19.
For `CC12CCC3C(CCC4C(C)(C(=O)OCCC[n+]5cccc(C=Cc6c[nH]c7ccccc67)c5)CCCC34C)(CC1=O)C2.[Br-]` (stereo not drawn) [Compound 19, 3-{3[(E)-2-(1H-Indol-3-yl)-ethenyl]-pyridinium-1-yl}-propyl (4α, 8β, 13β) 13-Methyl-16-oxo-17-norkauran-18-oate Bromide], the “selectivity index 1 (SI 1)” value in data set [1] was found to be 15.60. Further, the IC50 was found to be 990 nM in data set [1]; 11.2 µM in data set [2]; 1930 nM in data set [3]; 15.5 µM in data set [4]; 5.05 µM in data set [5]; 2500 nM in data set [6]. In addition, the “selectivity index 2 (SI 2)” value in data set [2] was found to be 1.38. In data set [3], the “resistance index (RI)” value stood at 1.94.
Take `C=C1C[C@@]23CC[C@H]4[C@@](C)(CCC[C@@]4(C)C(=O)OCCBr)[C@@H]2CC[C@]1(O)C3` [Compound 6, 2-Bromoethyl (4α)-13-Hydroxykaur-16-en-18-oate]: the “selectivity index 1 (SI 1)” value in data set [1] was determined as 1.70. The IC50 was determined as 24800 nM in data set [1]; 83.4 µM in data set [2]; 28100 nM in data set [3]; 42.2 µM in data set [4]; 30.6 µM in data set [5]; 29400 nM in data set [6]. Also, the “selectivity index 2 (SI 2)” value in data set [2] is 0.51. Further, in data set [3], the “resistance index (RI)” value is 1.13.
For the compound `C=C1C[C@@]23CC[C@H]4[C@@](C)(CCC[C@@]4(C)C(=O)OCC[n+]4ccc(/C=C/c5c[nH]c6ccccc56)cc4)[C@@H]2CC[C@]1(O)C3.[Br-]` [Compound 8, 2-{4-[(E)-2-(1H-Indol-3-yl)ethenyl]-pyridinium-1-yl}-ethyl (4α)-13-Hydroxykaur-16-en-18-oate Bromide], in data set [1], the “selectivity index 1 (SI 1)” value was 5.87. For the same compound, the half-inhibitory concentration (IC50) in data set [1] turned out to be 2010 nM; in data set [2], 8.82 µM; in data set [3], 1860 nM; in data set [4], 11.8 µM; in data set [5], 1.81 µM; in data set [6], 1810 nM. Also, in data set [2], the “selectivity index 2 (SI 2)” value is 1.34. For the same compound, the “resistance index (RI)” value in data set [3] amounted to 0.92.
As to `C=C1C[C@@]23CC[C@H]4[C@@](C)(CCC[C@@]4(C)C(=O)OCCC[n+]4ccccc4/C=C/c4c[nH]c5ccccc45)[C@@H]2CC[C@]1(O)C3.[Br-]` [Compound 20, 3-{2-[(E)-2-(1H-Indol-3-yl)-ethenyl]-pyridinium-1-yl}-propyl (4α)-13-Hydroxykaur-16-en-18-oate bromide], the “selectivity index 1 (SI 1)” value in data set [1] is reported as 10.73. Also, the IC50 in data set [1] was 1810 nM; in data set [2], 12.6 µM; in data set [3] it was 2700 nM; in data set [4], 19.4 µM; in data set [5], 6.11 µM; in data set [6], 1850 nM. Besides, in data set [2], the “selectivity index 2 (SI 2)” value is 1.55. Moreover, in data set [3], the “resistance index (RI)” value worked out at 1.49.
As to `CC12CCC3C(CCC4C(C)(C(=O)OCCCBr)CCCC34C)(CC1=O)C2` (stereo not drawn) [Compound 15, 3-Bromopropyl (4α, 8β, 13β) 13-Methyl-16-oxo-17-norkauran-18-oate], the “selectivity index 1 (SI 1)” value in data set [1] was 4.61. The IC50 amounted to 9000 nM in data set [1]; 24.8 µM in data set [2]; 16600 nM in data set [3]; 41.5 µM in data set [4]; 15.1 µM in data set [5]; 12800 nM in data set [6]. The “selectivity index 2 (SI 2)” value in data set [2] was determined as 1.67. Besides, in data set [3], the “resistance index (RI)” value is on record as 1.85.
